{"source": "patent US12677825B2", "about": "“Composition for protecting islet transplantation” (LG CHEM, LTD., priority 2020, dated 2026)", "key": {"[1]": {"system": "islets from hIAPP+/− FVB/N mice", "test": "Alamar blue viability of islets isolated with or without Compound 1", "assay_type": "cell-based, mouse", "conditions": "20 μM Compound 1 during islet isolation, vs non-treated group; FIG. 1A", "procedure": "(§1) Mouse islets were isolated from 10- to 12-week-old hIAPP^+/− and C57BL/6 mice as described previously. Briefly, 0.8 mg/mL of collagenase P (Roche, Indianapolis, IN, USA) in Hank's buffered saline solution (HBSS, Sigma-Aldrich, St. Louis, MO, USA) with or without 20 μM Compound 1 were infused into the common bile duct for mouse pancreas digestion. Islets were purified from the digested pancreas using a Ficoll (Biochrom, Berlin, Germany) gradient and washed several times with 1 xHBSS. Isolated islets were cultured while free-floating in 10 mL of RPMI 1640 (Gibco, Grand Island, NY, USA). The medium was supplemented with 10% heat-inactivated FBS (fetal bovine serum) at 37° C. and 5% CO2 incubation prior to the ex vivo and in vivo studies.\nThe viability of islets was evaluated using Alamar blue staining according to the manufacturer's protocol (Invitrogen, Grand Island, NY, USA). Briefly, islets isolated from hIAPP^+/− mice were cultured at a density of 100 islet equivalents (IE) per well in 24-well plates with RPMI 1640 containing 10% FBS and 0.625% BSA with or without Compound 1. […] The fluorescence intensity of each well was measured at 570/585 nm (excitation/emission) using a GloMax-Multi Plus Detection System (Promega, Fitchburg, WI, USA), and the values were normalized to a blank."}, "[2]": {"system": "islets from hIAPP+/− FVB/N mice", "test": "Intracellular free radical detection and lipid peroxidation after islet isolation", "assay_type": "cell-based, mouse", "conditions": "20 μM Compound 1 during islet isolation, vs control islets", "procedure": "as §1\nThe oxidative stress levels in hIAPP^+/− mouse islets were determined right after islet isolation and after ex vivo culture of isolated islets. The oxidative stress of the islets was quantified using a fluorescence-based intracellular ROS detection method and by estimating the concentration of malondialdehyde (MDA), a by-product of lipid peroxidation. The formation of total ROS, superoxide ion and nitric oxide was determined using a reactive oxygen species detection kit (ENZ-51011, Enzo Life Sciences, Farmingdale, New York, USA). The ROS content was measured by levels of DHR123 fluorescence. The kit was applied according to the manufacturer's protocol."}, "[3]": {"system": "RINm5F cells", "test": "Serum-deprived culture of RINm5F cells (viability, ROS)", "assay_type": "cell-based, rat", "conditions": "dose-dependent 0.1 μM to 20 μM", "procedure": "Islets were isolated from heterozygous human islet amyloid polypeptide transgenic (hIAPP^+/−)FVB/N mice (Jackson Laboratory, Bar Harbor, ME, USA), […] mice (Orientbio, Sungnam, Korea), and cynomolgus monkeys (Macaca fascicularis; Orientbio, Sungnam, Korea). For additional in vitro studies, rat insulinoma cells (RINm5F cells) were treated with or without Compound 1 during culture under tert-butyl hydroperoxide (tBHP) exposure or serum deprivation condition. RINm5F cells were suspended in DMEM medium (Gibco, Grand Island, NY, USA) containing 100 IU/mL penicillin and 100 μg/mL streptomycin, and cultured at 37° C. in a fully humidified 5% CO2 atmosphere. All experimental protocols in this study were approved by the Institutional Animal Care and Use Committee (IACUC) of Samsung Biomedical Research Institute."}, "[4]": {"system": "islets from hIAPP+/− mouse", "test": "GSIS assay after serum-deprived culture", "assay_type": "cell-based", "conditions": "Compound 1 added to medium during serum-deprived culture; FIG. 6E", "procedure": "Purified hIAPP^+/− FVB/N and C57BL/6J mouse were suspended in RPMI 1640 (Gibco, Grand Island, NY, USA) containing 100 IU/mL penicillin and 100 μg/mL streptomycin, and cultured at 37° C. in a fully humidified 5% CO2 atmosphere. Purified NHP islets were suspended in CMRL 1066 medium (Coming Life Sciences, Tewksbury, MA; catalog number 99-663-CV) containing 100 IU/mL penicillin and 100 μg/mL streptomycin, and cultured at 37° C. in a fully humidified 5% CO2 atmosphere. […]\nAfter hand-picking and washing with PBS, islets were seeded on 12-mm diameter insert wells (Merck Millipore, Billerica, MA, USA) with 10 islets per well, and preincubated with 60 mg/dL glucose in Kreb's-Ringer buffer (KRB: 129 mM NaCl, 4.8 mM KCl, 2.5 mM CaCl2, 1.2 mM KH2PO4, 5 mM NaHCO3, 10 mM HEPES, and 0.2% BSA) for 90 mM at 37° C. […] Insulin release into the supernatant by the mouse islets was measured by ELISA (ALPCO, Salem, NH, USA) and a multiplex kit (Merck Millipore), respectively."}}}
{"smiles": "O=S1(=O)CCN(Cc2cc(NC3CCOCC3)c3[nH]c(-c4ccccc4)cc3c2)CC1", "note": "[Compound 1]", "values": [{"measurement": "relative ex vivo cell viability assessed by Alamar blue assay", "setting": "[1]", "value": "significantly increased"}, {"measurement": "ROS contents in islets", "setting": "[2]; FIG. 1C", "value": "markedly decreased"}, {"measurement": "oxidative stress levels in islets", "setting": "[2]; FIG. 1D", "value": "markedly decreased"}, {"measurement": "relative cell viability", "setting": "[3]; serum deprivation, FIG. 4C", "value": "significantly increased"}, {"measurement": "serum deprivation-induced ROS", "setting": "[3]; serum-deprived culture, FIG. 4E", "value": "decreased"}, {"measurement": "stimulation index", "setting": "[4]", "value": "significantly increased"}]}
